Where two headings read alike, the source gives them in different places.
How the values were obtained:
[1] = molecular target: Cys242 in human PIK3CA (157-299) (Homo sapiens (Human), UniProt P42336); assay: Covalent modification assay using MALDI-TOF MS; assay type: biochemical; settings: 4 h reaction time point
Summary of the method: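 PIK3CA (157-299), 3.33 or 1 μM in 20 mM HEPES, 150 mM NaCl, 2 mM MgCl2, pH 7.3, was incubated with compound at room temperature in the dark for 15 min, 30 min, 2 h or 4 h. Linear MALDI-TOF read-out; % modification = adduct peak height over summed heights of all protein species.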

pAKT in BT474 cells = assay: Cell-based pAKT HTRF assay in BT474 cells; settings: BT474 cells, 4 hr incubation, read-out: pAKT inhibition IC50 in BT474 cells
Summary of the method: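 pAKT was measured by HTRF after a 4 hr compound exposure in BT474 cells (DMEM, 10% FBS, 0.25% DMSO), using 9 concentrations from 3 μM in 3-fold steps. Cell lysates were incubated with the Eu cryptate/d2 antibody pair at room temperature for 4 to 24 h. The plate was then read at 320 nm excitation and 615 nm emission.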

[2] = 3.33 μM protein target, 1:7.5 protein to compound ratio (compounds 1-852)
[3] = 1 μM protein target, 1:5 protein to compound ratio (compounds 853-1279)

Sequence of Cys242 in human PIK3CA (157-299) (P42336 157-299): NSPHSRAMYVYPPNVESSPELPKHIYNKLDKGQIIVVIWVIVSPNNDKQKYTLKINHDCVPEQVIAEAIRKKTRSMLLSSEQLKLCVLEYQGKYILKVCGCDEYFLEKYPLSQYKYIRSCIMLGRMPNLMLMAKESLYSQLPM

| SMILES | % of modification [1, 2] | IC50 (pAKT in BT474 cells; Compounds 10-999) | % of modification [1, 3] | IC50 (pAKT in BT474 cells; Compounds 1000-1279) | IC50 (pAKT in BT474 cells; Homo sapiens, BT-474, Compounds 10-999) |
| --- | --- | --- | --- | --- | --- |
| C=CC(=O)N1CCn2nc(-c3nc(-c4ccc5c(c4)CCN(C)C5)c4ccsc4c3-c3c(F)cc(F)cc3OC[C@@H](C)O)cc2[C@H]1C [Compound 721] | A (percent of modification of PIK3CA protein ≥75%) | < 100 nM | – | – | – |
| C=CC(=O)N1CCc2ncc(-c3nc(-c4ccc5nn(C)cc5c4)c4ccsc4c3-c3c(F)cc(F)cc3OCCOC)cc2C1 [Compound 945] | – | < 100 nM | A (percent of modification of PIK3CA protein ≥75%) | – | – |
| C=CC(=O)N1CCn2nc(-c3nc(-c4ccc5c(c4)CCN(C)C5)c4ccsc4c3-c3ccc(F)cc3OCCOC)cc2C1 [Compound 242] | A (percent of modification of PIK3CA protein ≥75%) | < 100 nM | – | – | – |
| C=CC(=O)N1CCn2nc(-c3nc(-c4cnc5c(c4)CN(C)CC5(C)C)c4ccsc4c3-c3c(F)cc(F)cc3OCCOC)cc2[C@H]1C [Compound 1161] | – | – | A (percent of modification of PIK3CA protein ≥75%) | < 100 nM | – |
| C=C(F)C(=O)N1CCn2nc(-c3nc(-c4ccc(=O)[nH]c4)c4ccsc4c3-c3ccc(F)cc3OC(C)C)cc2C1 [Compound 307] | A (percent of modification of PIK3CA protein ≥75%) | 100 to 1000 nM | – | – | – |
| C=CC(=O)N1Cc2cc(-c3nc(-c4ccn(C)n4)c4ccsc4c3-c3c(F)cc(F)cc3OCCOC)nn2C[C@H]1C [Compound 722] | A (percent of modification of PIK3CA protein ≥75%) | < 100 nM | – | – | – |
| C=CC(=O)N1CCn2nc(-c3nc(-c4ccc5cnn(C)c5c4)c4ccsc4c3-c3c(F)cc(F)cc3OCC(C)O)cc2C1C (centres unmarked) [Compound 677] | A (percent of modification of PIK3CA protein ≥75%) | < 100 nM | – | – | – |
| C=CC(=O)N1CCc2nc(-c3nc(-c4cnn(CC(C)(C)N)c4)c4ccsc4c3-c3c(F)cc(F)cc3OC(C)C)sc2C1 [Compound 401] | A (percent of modification of PIK3CA protein ≥75%) | 100 to 1000 nM | – | – | – |
| C=CC(=O)N1Cc2cc(-c3nc(-c4ccc5c(c4)CCN(C)C5)c4ccsc4c3-c3c(F)cc(F)cc3OCCOC)nn2C(C)C1 (centres unmarked) [Compound 558] | D (percent of modification <25%) | 100 to 1000 nM | – | – | – |
| C=CC(=O)N1CCn2nc(-c3nc(-c4ccn(C5CN(C)C5)c(=O)c4)c4ccsc4c3-c3c(F)cc(F)cc3OCCOC)cc2C1C (centres unmarked) [Compound 1080] | – | – | A (percent of modification of PIK3CA protein ≥75%) | < 100 nM | – |
| C=CC(=O)N1CCn2nc(-c3nc(-c4ccnc(N)c4)c4ccsc4c3-c3ccc(F)cc3OCC3CCNC(=O)C3)cc2C1 (centres unmarked) [Compound 249] | A (percent of modification of PIK3CA protein ≥75%) | < 100 nM | – | – | – |
| C=CC(=O)N1CCc2ncc(-c3nc(-c4ccc5c(c4)CN(C)C5=O)c4ccsc4c3-c3c(F)cc(F)cc3OC(C)C)cc2C1 [Compound 407] | A (percent of modification of PIK3CA protein ≥75%) | < 100 nM | – | – | – |
| C=CC(=O)N1CCc2nc(-c3nc(-c4ccc5c(c4)C(O)CC5)c4ccsc4c3-c3ccc(F)cc3OCCOC)sc2C1 (centres unmarked) [Compound 152] | A (percent of modification of PIK3CA protein ≥75%) | < 100 nM | – | – | – |
| C=C(F)C(=O)N1CCn2nc(-c3nc(-c4ccc5c(c4)[C@@H](O)CC5)c4ccsc4c3-c3ccc(F)cc3OC(C)C)cc2C1 [Compound 308] | A (percent of modification of PIK3CA protein ≥75%) | 100 to 1000 nM | – | – | – |
| C=CC(=O)N1CC(n2cc(-c3nc(-c4ccc5c(c4)CS(=O)(=O)C5)c4ccsc4c3-c3ccc(F)cc3OC)cn2)C1 [Compound 95] | A (percent of modification of PIK3CA protein ≥75%) | < 100 nM | – | – | – |
| C=CC(=O)N1CCc2cc(-c3nc(-c4cnc5c(cnn5C)c4)c4ccsc4c3-c3c(F)cc(F)cc3OCCOC)nn2CC1 [Compound 1023] | – | – | A (percent of modification of PIK3CA protein ≥75%) | < 100 nM | – |
| C=CC(=O)N1CCn2nc(-c3nc(-c4cnn(C)c4)c4ccsc4c3-c3ccc(F)cc3OC(C)C)c(OC)c2C1 [Compound 313] | A (percent of modification of PIK3CA protein ≥75%) | < 100 nM | – | – | – |
| C=CC(=O)N1CCn2nc(-c3nc(-c4ccc(=O)n(C)c4)nc(C)c3-c3ccc(F)cc3OC(C)C)cc2C1 [Compound 331, 5-[5-(4-fluoro-2-isopropoxy-phenyl)-4-methyl-6-(5-prop-2-enoyl-6,7-dihydro-4H-pyrazolo[1,5-a]pyrazin-2-yl)pyrimidin-2-yl]-1-methyl-pyridin-2-one] | A (percent of modification of PIK3CA protein ≥75%) | – | – | – | 1000 to 3000 nM |
| C=CC(=O)N1CCc2ccc(-c3nc(-c4ccc5c(c4)CNC(=O)C5)c4ccsc4c3-c3c(F)cc(F)cc3OCCOC)cc2C1 [Compound 1066] | – | – | D (percent of modification <25%) | 100 to 1000 nM | – |

| SMILES | % of modification [1, 2] | IC50 (pAKT in BT474 cells; Compounds 10-999) | % of modification [1, 3] | IC50 (pAKT in BT474 cells; Compounds 1000-1279) | IC50 (pAKT in BT474 cells; Homo sapiens, BT-474, Compounds 10-999) |
| --- | --- | --- | --- | --- | --- |
| C=CC(=O)N1CCc2nc(-c3nc(-c4ccc5c(c4)CS(=O)(=O)C5)c4ccsc4c3-c3ccc(F)cc3OCCOC)sc2C1 [Compound 116] | A (percent of modification of PIK3CA protein ≥75%) | < 100 nM | – | – | – |
| C=CC(=O)N1Cc2cc(-c3nc(-c4cn(C)cn4)c4ccsc4c3-c3c(F)cc(F)cc3OCC(C)(C)O)nn2[C@@H](C)C1 [Compound 883] | – | < 100 nM | A (percent of modification of PIK3CA protein ≥75%) | – | – |
| C=CC(=O)N1CC[C@H](n2cc(-c3nc(-c4cnn(C)c4)c4ccsc4c3-c3c(F)cc(F)cc3OC(C)C)cn2)C1 [Compound 358] | A (percent of modification of PIK3CA protein ≥75%) | 100 to 1000 nM | – | – | – |
| C=CC(=O)N1CCc2nc(-c3nc(-c4ccn(C)c(=O)c4)c4ccsc4c3-c3c(F)cc(F)cc3OC(C)C)sc2C1 [Compound 352] | A (percent of modification of PIK3CA protein ≥75%) | < 100 nM | – | – | – |
| C=CC(=O)N1CCn2nc(-c3nc(-c4ccc5c(c4)CN(CC(F)(F)F)CC5)c4ccsc4c3-c3c(F)cc(F)cc3OCCO)cc2C1C (centres unmarked) [Compound 1250] | – | – | A (percent of modification of PIK3CA protein ≥75%) | < 100 nM | – |
| C=CC(=O)N1CCc2cc(-c3nc(-c4cnc5c(c4)CNC(=O)C5)c4ccsc4c3-c3c(F)cc(F)cc3OCCOC)nn2CC1 [Compound 1005] | – | – | D (percent of modification <25%) | > 1000 nM | – |
| C=CC(=O)N1CCc2ncc(-c3nc(-c4cnn(C)c4)c4ccsc4c3-c3c(F)cc(F)cc3OC)cc2C1 [Compound 405] | A (percent of modification of PIK3CA protein ≥75%) | < 100 nM | – | – | – |
| C=CC(=O)N1CCc2ccc(-c3nc(-c4ccc5c(c4)CN(CCO)CC5(F)F)c4ccsc4c3-c3c(F)cc(F)cc3OCCOC)cc2C1 [Compound 1273] | – | – | D (percent of modification <25%) | > 1000 nM | – |
| C=CC(=O)N1CCc2nc(-c3nc(-c4ccc5c(c4)CCN(C)C5)c4ccsc4c3-c3c(F)cc(F)cc3OC(C)C)sc2C1 [Compound 312] | A (percent of modification of PIK3CA protein ≥75%) | < 100 nM | – | – | – |
| C=CC(=O)N1Cc2cc(-c3nc(-c4ccc5c(cnn5C)c4)c4ccsc4c3-c3c(F)cc(F)cc3OC[C@@H](C)O)nn2[C@@H](C)C1 [Compound 609] | A (percent of modification of PIK3CA protein ≥75%) | < 100 nM | – | – | – |
| C=CC(=O)N1CC[C@@H](n2cc(-c3nc(-c4cncc(C#N)c4)c4ccsc4c3-c3c(F)cc(F)cc3OC(C)C)cn2)C1 [Compound 388] | A (percent of modification of PIK3CA protein ≥75%) | 100 to 1000 nM | – | – | – |
| C=CC(=O)N1CCc2nc(-c3nc(-c4ccc5c(c4)CN(C)CC5(F)F)c4ccsc4c3-c3c(F)cc(F)cc3OCCOC)sc2C1 [Compound 1276] | – | – | A (percent of modification of PIK3CA protein ≥75%) | 100 to 1000 nM | – |
| C=CC(=O)N1Cc2cc(-c3nc(-c4ccc5oc(C)nc5c4)c4ccsc4c3-c3c(F)cc(F)cc3OCC(C)O)nn2C(C)C1 (centres unmarked) [Compound 683] | A (percent of modification of PIK3CA protein ≥75%) | < 100 nM | – | – | – |
| C=CC(=O)N1CCc2ncc(-c3nc(-c4cnn(C)c4)c4ccsc4c3-c3c(F)cc(F)cc3OCCO)cc2C1 [Compound 395] | A (percent of modification of PIK3CA protein ≥75%) | < 100 nM | – | – | – |
| C=CC(=O)N1CCn2nc(-c3nc(-c4ccc(C5(C(=O)NC)CC5)cc4)c4ccsc4c3-c3c(F)cc(F)cc3OC)cc2[C@H]1C (single isomer, unassigned) [Compound 1151] | – | – | A (percent of modification of PIK3CA protein ≥75%) | 100 to 1000 nM | – |
| C=CC(=O)N1CCn2nc(-c3nc(-c4ccc5c(c4)C(=O)N(C)CC5)c4ccsc4c3-c3c(F)cc(F)cc3OCCOC)cc2[C@H]1C [Compound 953] | – | < 100 nM | A (percent of modification of PIK3CA protein ≥75%) | – | – |
| C=CC(=O)N1CCn2nc(-c3nc(-c4cnc(OCCN(C)C)nc4)c4ccsc4c3-c3c(F)cc(F)cc3OCCOC)cc2C1C (centres unmarked) [Compound 1056] | – | – | A (percent of modification of PIK3CA protein ≥75%) | < 100 nM | – |
| C=CC(=O)N1CCn2nc(-c3nc(-c4ccc5c(c4)C4(CC4)CN(C)C5)c4ccsc4c3-c3c(F)cc(F)cc3OCCOC)cc2C1C (centres unmarked) [Compound 1193] | – | – | A (percent of modification of PIK3CA protein ≥75%) | < 100 nM | – |

— patent US20250230138A1, “COMPOUNDS HAVING A T-STRUCTURE FORMED BY AT LEAST FOUR CYCLES FOR USE IN THE TREATMENT OF CANCER AND OTHER INDICATIONS” (TheRas, Inc., priority 2022, published 2025)
